{"source": "patent US10881107B2", "about": "“Antimicrobial compositions containing alkylpyrazines and their uses” (ROOMBIOTIC GMBH, priority 2015, dated 2021)", "experiment": "antimicrobial activity test of alkyl pyrazine compounds or mixtures", "format": "cell-based", "excerpt": "Several alkyl pyrazine compounds or mixtures thereof have been tested for their antimicrobial activity.", "data": [{"smiles": "Cc1cnc(C)c(C)n1", "note": "[2,3,5-Trimethylpyrazine, reference compound]", "values": [{"measurement": "Antimicrobial activity", "value": "No"}]}, {"smiles": "Cc1nccnc1C", "note": "[2,3-Dimethylpyrazine, reference compound]", "values": [{"measurement": "Antimicrobial activity", "value": "Yes"}, {"measurement": "Degree of antimicrobiai activity", "value": "Weak"}]}, {"smiles": "Cc1cnc(C)cn1", "note": "[2,5-Dimethylpyrazine, reference compound]", "values": [{"measurement": "Antimicrobial activity", "value": "Yes"}, {"measurement": "Degree of antimicrobiai activity", "value": "Weak"}]}, {"smiles": "CC(=O)c1cnccn1", "note": "[2-Acetylpyrazine, reference compound]", "values": [{"measurement": "Antimicrobial activity", "value": "No"}]}, {"smiles": "COc1nccnc1CC(C)C", "note": "[2-Isobutyl-3-methoxypyrazine]", "values": [{"measurement": "Antimicrobial activity", "value": "Yes"}, {"measurement": "Degree of antimicrobiai activity", "value": "Strong"}]}, {"smiles": "Cc1nccnc1CC(C)C", "note": "[2-Isobutyl-3-methylpyrazine]", "values": [{"measurement": "Antimicrobial activity", "value": "Yes"}, {"measurement": "Degree of antimicrobiai activity", "value": "Strong"}]}, {"smiles": "CC(C)Cc1cnccn1", "note": "[2-Isobutylpyrazine]", "values": [{"measurement": "Antimicrobial activity", "value": "Yes"}, {"measurement": "Degree of antimicrobiai activity", "value": "Strong"}]}, {"smiles": "CC(C)c1cnccn1", "note": "[2-Isopropylpyrazine]", "values": [{"measurement": "Antimicrobial activity", "value": "Yes"}, {"measurement": "Degree of antimicrobiai activity", "value": "Strong"}]}, {"smiles": "Cc1nc(C(C)C)c(C(C)C)nc1C(C)C", "note": "[TS-73]", "values": [{"measurement": "Antimicrobial activity", "value": "No"}]}]}
